# Data reported in paper PMC6152057, “Multifunctional Cinnamic Acid Derivatives” (Molecules : A Journal of Synthetic Chemistry and Natural …, 2017).
# “And” between values parts separate entries of the source, which are not always exact repeats. Equal entries are not always repeated. “Also recorded” adds a separate entry of the source.
# Experiments:
# [1] = Lipophilicity as RM values by RP-TLC; type: physicochemical; parameters: key: RM = log[(1/Rf) − 1]; details: MeOH:H2O (70/30), average of at least 5 measurements
# Description: Reversed phase TLC (RP-TLC) was performed on silica gel plates impregnated with 5% (v/v) liquid paraffin in light petroleum ether. The mobile phase was a methanol/water mixture (70/30, v/v). The plates were developed in closed chromatography tanks saturated with the mobile phase at 24 °C. Spots were detected under UV light. RM values were determined from the corresponding Rf values (from five individual measurements) using the equation RM = log[(1/Rf) − 1] (Table 1).
# [2] = Inhibition of linoleic acid lipid peroxidation (AAPH); details: 100 μM; AAPH-induced oxidation of sodium linoleate, pH 7.4, 37 °C; na = no activity
# Description: Production of conjugated diene hydro peroxide by oxidation of sodium linoleate in an aqueous solution was monitored at 234 nm. AAPH was used as a free radical initiator. Ten microliters of the 16 mM sodium linoleate solution was added to the UV cuvette containing 930 μL of 0.05 M phosphate buffer, pH 7.4 prethermostated at 37 °C. The oxidation reaction was initiated at 37 °C under air by the addition of 50 μL of 40 mM AAPH solution. 10 μL of the appropriate solutions of the tested compounds were added in the mixture. Lipid oxidation was measured in the presence of the same level of DMSO. The rate of oxidation at 37 °C was monitored by recording the increase in absorption at 234 nm caused by conjugated diene hydro peroxides [24].
# soybean lipoxygenase = biological target: T1, soybean lipoxygenase (Glycine max, UniProt P08170); experiment: Soybean lipoxygenase inhibition in vitro (UV-based enzyme assay); type: biochemical; details: for IC50: sodium linoleate substrate, tris buffer pH 9, read-out: IC50 μΜ, inhibition of soybean lipoxygenase
# T1 construct: purchased Sigma Chemical, Co. (St. Louis, MO, USA)
# T1 sequence (P08170 1-839): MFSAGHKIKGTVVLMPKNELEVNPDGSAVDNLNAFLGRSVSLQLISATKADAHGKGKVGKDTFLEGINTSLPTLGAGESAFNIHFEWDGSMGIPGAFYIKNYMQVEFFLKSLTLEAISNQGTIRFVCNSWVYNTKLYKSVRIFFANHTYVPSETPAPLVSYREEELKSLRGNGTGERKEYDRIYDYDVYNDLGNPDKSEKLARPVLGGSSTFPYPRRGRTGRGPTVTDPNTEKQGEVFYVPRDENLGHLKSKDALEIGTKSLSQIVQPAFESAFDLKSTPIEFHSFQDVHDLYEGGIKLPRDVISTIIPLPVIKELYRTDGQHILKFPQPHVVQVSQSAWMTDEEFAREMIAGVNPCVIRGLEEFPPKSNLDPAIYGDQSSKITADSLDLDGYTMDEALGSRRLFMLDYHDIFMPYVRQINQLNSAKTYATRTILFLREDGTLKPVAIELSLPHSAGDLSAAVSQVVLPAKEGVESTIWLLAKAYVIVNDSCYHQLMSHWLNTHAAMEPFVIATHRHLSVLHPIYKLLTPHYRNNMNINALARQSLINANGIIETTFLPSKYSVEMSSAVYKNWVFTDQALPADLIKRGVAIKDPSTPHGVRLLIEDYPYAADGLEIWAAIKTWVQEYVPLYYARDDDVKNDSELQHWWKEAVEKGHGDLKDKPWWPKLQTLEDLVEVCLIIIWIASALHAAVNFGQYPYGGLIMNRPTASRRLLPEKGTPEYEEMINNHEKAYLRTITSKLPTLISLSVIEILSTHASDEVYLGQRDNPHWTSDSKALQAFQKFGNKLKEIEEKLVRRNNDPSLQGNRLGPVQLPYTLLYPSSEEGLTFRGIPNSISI
# Description: The tested compounds were dissolved in DMSO (10 μL) and incubated at room temperature with sodium linoleate (100 mM) and 0.2 mL of enzyme solution (1/9 × 10^−4 w/v in saline) in buffer pH 9 (tris) at room temperature (final volume 1 mL). […] Several concentrations were used for the determination of IC50 values.
# trypsin = biological target: T2, trypsin (Bos taurus, UniProt P00760); experiment: Inhibition of trypsin induced proteolysis in vitro (modified Kunitz method); type: biochemical, bovine; details: for IC50: bovine albumin substrate, pH 7.6, 37 °C, read-out: IC50 μΜ, inhibition of trypsin induced proteolysis
# T2 construct: purchased Sigma Chemical, Co. (St. Louis, MO, USA); host or cells: bovine pancreas
# T2 sequence (P00760 24-246): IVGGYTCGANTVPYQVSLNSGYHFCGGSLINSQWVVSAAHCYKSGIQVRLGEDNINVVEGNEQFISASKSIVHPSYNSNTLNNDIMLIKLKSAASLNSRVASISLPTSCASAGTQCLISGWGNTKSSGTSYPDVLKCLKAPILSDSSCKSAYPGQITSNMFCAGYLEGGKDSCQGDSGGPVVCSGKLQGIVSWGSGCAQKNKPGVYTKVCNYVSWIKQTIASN
# Description: All chemicals, solvents, chemical and biochemical reagents were of analytical grade and purchased from commercial sources (Merck, Merck KGaA, Darmstadt, Germany, Fluka Sigma-Aldrich Laborchemikalien GmbH, Hannover, Germany, Alfa Aesar, Karlsruhe, Germany and Sigma, St. Louis, MO, USA). Soybean lipoxygenase, pancreatic bovine trypsin, sodium linoleate, 2,2-azobis (2-amidinopropane) dihydrochloride (AAPH) were obtained from Sigma Chemical, Co. (St. Louis, MO, USA).
# The test was carried out according to a modified Kunitz method. Bovine albumin was used as substrate for trypsin [24]. The reaction mixture consisted of 200 μL of 0.075 mg/mL trypsin and 780 μL of phosphate buffer pH 7.6 (including the tested compounds (20 μL in DMSO, final concentration 100 μM) preincubated at 37 °C for 20 min and then 1 mL of albumin (stock solution 6 g/100 mL in phosphate buffer 0.1 M, pH 7.6) was added and incubated at 37 °C for 30 min. After the incubation 1 mL of 5% trichloroacetic acid was added to the incubated solution to stop the enzyme’s reaction and allowed to set at room temperature for 1 h. Then the solution was filtered and the absorption of the filtered solution was measured at 280 nm.
# [3] = tested on: L929 mouse fibroblasts cells; experiment: Cytotoxicity, propidium iodide fluorescence method; type: cell-based; details: 24 h incubation, 1–100 μM
# Description: The cytotoxicity of the synthesized derivatives was determined using the propidium iodide (PI) fluorescence method in the presence of different concentrations (1–100 μM) of these compounds. L929 mouse fibroblasts cells were used in this work since they have been previously used in the study of the pharmacological effects of antioxidant and anti-inflammatory agents. The cytotoxicity results of the new compounds against normal cells (such as the L929 fibroblasts) would give useful information as only non-cytotoxic compounds should be further evaluated as potential antioxidant drugs. The results are presented in Figure 1 in the form of the % cell survival values as propidium iodide % (PI)—values PI% for the examined compounds.
# L929 mouse fibroblasts cells were cultured in EMEM supplemented with 10% horse serum, 2 mM L-glutamine, 1 mM sodium pyruvate, 0.1 mM nonessential amino acids, 1.5 g/L sodium bicarbonate and 100 μg/mL penicillin–streptomycin at 37 °C in a humidified atmosphere with 5% CO2. L929 cells were plated into 24-well plates at a density […] and allowed to attach and grow for 24 h. […] After 24 h incubation, the supernatant was removed and the cells were washed with PBS. […] The PI fluorescence (cell death) was determined with flow cytometry, FACS Calibur, Coulter Epics XL-MCL (Beckman, Inc., Mount Holly, NJ, USA). […]
molecule,measurement,setting,value
"3,4-dimethoxycaffeic acid [Compound 3]",RM (±SD),[1],−0.869 ± 0.0614
same,ILP% @100 μΜ (% inhibition of lipid peroxidation),[2],86%
"CC(C)NCC(O)COc1ccc(CC(N)=O)cc1 (stereo not shown) [Atenolol, atenolol, reference compound]",IC50,soybean lipoxygenase,22.5 µM
same,"Anti-proteolytic activity, trypsin inhibition (in words)",trypsin,did not present any activity
"O=C(O)/C=C/c1ccccc1 [Compound 1, cinnamic acid]",RM (±SD),[1],−0.485 and −0.485 ± 0.044
same,ILP% @100 μΜ (% inhibition of lipid peroxidation),[2],78%
CC(C)N(CC(O)COc1ccc(CC(N)=O)cc1)C(=O)/C=C/c1ccccc1 (stereo not shown) [Compound 1a],IC50,soybean lipoxygenase,66 µM
same,melting point,,102 to 105 °C
same,RM (±SD),[1],−0.720 and −0.720 ± 0.012
same,IC50,trypsin,0.315 µM
same,ILP% @100 μΜ (% inhibition of lipid peroxidation),[2],97%
"CC(C)N(CC(O)COc1cccc2ccccc12)C(=O)/C=C/c1ccccc1 (stereo not shown) [Compound 1b, (E)-N-(2-hydroxy-3-(naphthalen-1-yloxy)propyl)-N-isopropylcinnamamide]",IC50,soybean lipoxygenase,50 µM
same,Cytotoxicity on L929 cells as PI% values (in words),[3],remarkable cytotoxicity
same,RM (±SD),[1],0.411 and 0.411 ± 0.061
same,IC50,trypsin,10 µM
same,ILP% @100 μΜ (% inhibition of lipid peroxidation),[2],69%
"O=C(/C=C/c1ccccc1)OC12CC3CC(CC(C3)C1)C2 [Compound 1c, (E)-adamantan-1-yl cinnamate]",Soybean LOX inhibition (in words),soybean lipoxygenase,low or no activity; also recorded: inactive
same,melting point,,183 to 185 °C
same,RM (±SD),[1],0.911 and 0.911 ± 0.0112
same,IC50,trypsin,49 µM
"O=C(/C=C/c1ccccc1)Oc1cccc2ccccc12 [Compound 1d, (E)-naphthalen-1-yl cinnamate]",Soybean LOX inhibition (in words),soybean lipoxygenase,low or no activity
same,IC50,soybean lipoxygenase,27.5 µM
same,melting point,,210 to 212 °C
same,RM (±SD),[1],0.0889 ± 0.002
same,ILP% @100 μΜ (% inhibition of lipid peroxidation),[2],inactive
"O=C(/C=C/c1ccccc1)OCCN(Cc1ccccc1)C(=O)/C=C/c1ccccc1 [Compound 1f, 2-(N-benzylcinnamamido) ethyl cinnamate]",Soybean LOX inhibition (in words),soybean lipoxygenase,low or no activity
same,inhibition at 100 µM,"soybean lipoxygenase; 100 μM, na = no activity under the reported experimental conditions, read-out: LOX Inh. % @ 100 μΜ",20%
same,RM (±SD),[1],0.1402 ± 0.0227
same,IC50,trypsin,100 µM
same,ILP% @100 μΜ (% inhibition of lipid peroxidation),[2],inactive
"O=C(O)/C=C/c1cccc(Oc2ccccc2)c1 [Compound 2, (E)-3-(3-phenoxyphenyl)acrylic acid]",IC50,soybean lipoxygenase,66 µM
same,RM (±SD),[1],−0.41 ± 0.016
same,ILP% @100 μΜ (% inhibition of lipid peroxidation),[2],84%
CC(C)N(CC(O)COc1ccc(CC(N)=O)cc1)C(=O)/C=C/c1cccc(Oc2ccccc2)c1 (stereo not shown) [Compound 2a],IC50,soybean lipoxygenase,35 µM
same,Cytotoxicity on L929 cells as PI% values (in words),[3],remarkable cytotoxicity
same,RM (±SD),[1],0.128 ± 0.0204
same,IC50,trypsin,0.325 µM
same,ILP% @100 μΜ (% inhibition of lipid peroxidation),[2],86%
"CC(C)N(CC(O)COc1cccc2ccccc12)C(=O)/C=C/c1cccc(Oc2ccccc2)c1 (stereo not shown) [Compound 2b, (E)N-(2-hydroxy-3-(naphthalen-1-yloxy)propyl)-N-isopropyl-3-(3phenoxyphenyl) acrylamide]",IC50,soybean lipoxygenase,6 µM
same,melting point,,118 to 120 °C
same,RM (±SD),[1],0.907 and 0.907 ± 0.008
same,IC50,trypsin,0.425 µM
same,ILP% @100 μΜ (% inhibition of lipid peroxidation),[2],84%
COc1ccc(/C=C/C(=O)N(CC(O)COc2ccc(CC(N)=O)cc2)C(C)C)cc1OC (stereo not shown) [Compound 3a],IC50,soybean lipoxygenase,10 µM
same,melting point,,176 to 178 °C
same,RM (±SD),[1],−0.841 and −0.841 ± 0.0014
same,IC50,trypsin,1 µM
same,ILP% @100 μΜ (% inhibition of lipid peroxidation),[2],86%
"COc1ccc(/C=C/C(=O)N(CC(O)COc2cccc3ccccc23)C(C)C)cc1OC (stereo not shown) [Compound 3b, (E)-3-(3,4-dimethoxyphenyl)-N-(2-hydroxy-3-(naphthalen-1-yloxy)propyl)-N-isopropylacrylamide]",IC50,soybean lipoxygenase,10 µM
same,melting point,,172 to 174 °C
same,RM (±SD),[1],0.0819 and 0.0819 ± 0.01
same,IC50,trypsin,0.516 µM
same,ILP% @100 μΜ (% inhibition of lipid peroxidation),[2],71%
"CC(C)N(C[C@H](O)COc1cccc2ccccc12)C(=O)/C=C/c1cccc(Oc2ccccc2)c1 [Compound S-2b, (S)-N-(2-hydroxy-3-(naphth-1-yloxy)propyl)-N-isopropyl-3-(3-phenoxyphenyl) acrylamide]",IC50,soybean lipoxygenase,6 µM
same,IC50,trypsin,2.75 µM
same,ILP% @100 μΜ (% inhibition of lipid peroxidation),[2],86%
"O=C(O)c1ccccc1O [Salicylic acid, reference compound]",inhibition at 100 µM,"trypsin; 100 μM, na = no activity under the reported experimental conditions, read-out: Trypsin Inh. % @100 μM",53.6%
"Cc1c(C)c2c(c(C)c1O)CCC(C)(C(=O)O)O2 (stereo not shown) [Trolox, reference compound]",ILP% @100 μΜ (% inhibition of lipid peroxidation),[2],93%
(E)-2-(benzylamino) ethyl 3-phenylacrylate [Compound 1e],Soybean LOX inhibition (in words),soybean lipoxygenase,low or no activity
same,IC50,soybean lipoxygenase,100 µM
same,RM (±SD),[1],−0.374 ± 0.0176
